This assay has as its system wild-type C57:129 F2 hybrid mice. As to the kind of experiment: Dexamethasone-induced ocular hypertension model (IOP by TonoLab tonometer). The class given is in vivo, mouse. How it is done: Twenty eight day mouse Alzet mini-osmotic pumps (DURECT Corp., Cupertino, Calif.) were filled with a solution of water soluble dexamethasone (dex) in PBS (Sigma, St. Louis, Mo.) so that they would release roughly 0.1 mg of dex per day. Once the pumps were filled with the dex, the pumps were allowed to equilibrate in PBS at 37° C. for 60 hours. The equilibrated pumps were surgically placed subcutaneously on the backs of wild-type C57:129 F2 hybrid mice weighing between 25 and 35 grams. Surgical incisions were sutured with 5-0 braided silk (ROBOZ, Gaithersburg, Md.) and treated with antibiotic ointment throughout the entire duration of study. Surgical incisions were glued with TissueMend II (Webster Veterinary, Houston, Tex.). Analgesic (buprenorphine) was given through IP injection the day of surgery and 24 hours after surgery. Intraocular pressure (IOP) was measured on these mice using a TonoLab (Colonial Medical Supply Co., Franconia, N.H.) tonometer. Mice were mildly sedated with isoflurane and topically anesthetized with 0.5% proparacaine (Akorn, Buffalo Grove, Ill.) before IOP measurements were taken. Baseline IOP was measured 1 day prior to mini-pump implantation. After mini-pump implantation, IOP measurements were taken 2-3 times per week for 4 weeks. Pharmacology studies with potential ocular hypotensive compounds were performed between 21 and 28 days after implantation.

Experimental findings from patent publication US20130059896A1, “5-(1H-PYRAZOL-5-YL)THIAZOLE-BASED COMPOUNDS FOR THE TREATMENT OF DISEASES AND DISORDERS OF THE EYE” (priority 2010, published 2013) are described below.

In the case of `O=C(C[C@@H]1CCCN1)Nc1ncc(-c2cc(C(F)F)nn2-c2c(Cl)cccc2Cl)s1` [Compound 9, (S)—N-(5-(1-(2,6-dichlorophenyl)-3-(difluoromethyl)-1H-pyrazol-5-yl)thiazol-2-yl)-2-(pyrrolidin-2-yl)acetamide], the “Average changes in IOP measured from time of dosing” value (shortened to “Average changes in IOP measured”) reads like this: (3 μg/eye, 0 hr) 0.00 (0.0); (3 μg/eye, 2 hr) −4.10 (2.6); (3 μg/eye, 4 hr) −3.81 (3.8); (3 μg/eye, 6 hr) −3.19 (3.2); (15 μg/eye, 0 hr) 0.00 (0.0); (15 μg/eye, 2 hr) −4.25 (2.7). Also, the “Average changes in IOP measured” value (15 μg/eye, 4 hr) is recorded as −4.88 (5.1); the “Average changes in IOP measured” value (15 μg/eye, 6 hr) is −4.88 (4.2); the “Average changes in IOP measured” value (30 μg/eye, 0 hr) is listed as 0.00 (0.0); the “Average changes in IOP measured” value (30 μg/eye, 2 hr) was −3.33 (4.2); the “Average changes in IOP measured” value (30 μg/eye, 4 hr) is given as −2.86 (1.1); the “Average changes in IOP measured” value (30 μg/eye, 6 hr) is −2.29 (2.2). Moreover, the “Effect in the ocular hypertension model (FIG. 1)” value (dose response, FIG. 1) was “dose dependent effect”.
